# Measured values from US9822058B2 (CHDI FOUNDATION, INC., priority 2012, dated 2017).
# Biological target: T1, KMO mouse enzyme (Mus musculus, UniProt Q91WN4)
# T1 construct: KMO enzyme prepared at Evotec from mouse liver (4-6 weeks old) via mitochondria isolation; from tissue; host or cells: mouse liver (4-6 weeks old), isolated mitochondria, prepared at Evotec
# Test: KMO mouse enzyme assay: L-Kynurenine hydroxylation to 3-Hydroxy-Kynurenine by LC/MS (protocols substantially similar to Example 33)
# Format: biochemical
# Conditions: compound at 30 µM; KMO enzyme from mouse liver mitochondria; 100 μM L-Kynurenine; 40 min at RT
# Description: A method of monitoring L-Kynurenine (KYN) hydroxylation to form 3-Hydroxy-Kynurenine (3OH-KYN) by LC/MS is described. Product is quantified by multiple reaction monitoring (MRM method). […]
# Using the assay protocols substantially similar to those of Example 33, the following compounds were tested.
# T1 sequence (Q91WN4 whole entry): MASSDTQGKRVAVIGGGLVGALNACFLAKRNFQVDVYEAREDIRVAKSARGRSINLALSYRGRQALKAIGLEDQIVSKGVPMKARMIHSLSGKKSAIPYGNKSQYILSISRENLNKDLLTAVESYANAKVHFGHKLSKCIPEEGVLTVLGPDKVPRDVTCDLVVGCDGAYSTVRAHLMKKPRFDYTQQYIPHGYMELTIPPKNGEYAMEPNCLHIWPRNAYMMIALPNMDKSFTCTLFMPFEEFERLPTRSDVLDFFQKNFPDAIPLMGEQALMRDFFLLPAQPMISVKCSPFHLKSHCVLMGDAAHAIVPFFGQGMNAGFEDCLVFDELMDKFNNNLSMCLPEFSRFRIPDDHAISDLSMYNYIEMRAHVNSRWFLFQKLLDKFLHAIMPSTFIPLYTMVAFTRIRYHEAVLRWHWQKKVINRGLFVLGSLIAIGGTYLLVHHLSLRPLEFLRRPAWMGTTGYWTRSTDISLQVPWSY
SMILES,inhibition at 30 µM [%],% Inhibition at 30 µM [%]
"CC1(C)[C@@H](C(=O)O)[C@@H]1C(=O)c1ccc(Cl)c(Cl)c1 [(1S,3S)-3-(3,4-dichlorobenzoyl)-2,2-dimethylcyclopropane-1-carboxylic acid]",15.4,–
"CC(OC(=O)[C@H]1C[C@@H]1C(=O)c1ccc(Cl)c(Cl)c1)OC(=O)[C@H]1C[C@@H]1C(=O)c1ccc(Cl)c(Cl)c1 [1-{[(1S,2S)-2-[(3,4-dichlorophenyl)carbonyl]cyclopropyl]carbonyloxy}ethyl (1S,2S)-2-[(3,4-dichlorophenyl)carbonyl]cyclopropane-1-carboxylate]",98,–
O=C(c1ccc(F)c(Cl)c1)C1C[C@@H]1C(=O)O (stereo partly drawn) [(1S)-2-[(3-Chloro-4-fluorophenyl)carbonyl]cyclopropane-1-carboxylic acid],68,–
"O=C(c1ccc(F)c(Cl)c1)[C@H]1C[C@@H]1c1noc(=O)[nH]1 [3-[(1S,2S)-2-[(3-Chloro-4-fluorophenyl)carbonyl]cyclopropyl]-4,5-dihydro-1,2,4-oxadiazol-5-one]",101,–
"Cc1ccc(C(=O)[C@H]2C[C@@H]2C(=O)[O-])cc1Cl.[Na+] [Sodium (1S,2S)-2-[(3-chloro-4-methylphenyl)carbonyl]cyclopropane-1-carboxylate]",–,100
"C[C@]1(C(=O)O)C[C@@H]1C(=O)c1ccc(Cl)c(Cl)c1 [(1S,2S)-2-(3,4-dichlorobenzoyl)-1-methylcyclopropane-1-carboxylic acid]",98.6,–
"CC1(C)[C@H](C(=O)O)[C@H]1C(=O)c1ccc(Cl)c(Cl)c1 [(1R,3R)-3-(3,4-dichlorobenzoyl)-2,2-dimethylcyclopropane-1-carboxylic acid]",54,–
"O=C(O)[C@H]1C[C@@H]1C(=O)c1ccc(C(F)(F)F)c(Cl)c1 [(1S,2S)-2-{[3-Chloro-4-(trifluoromethyl)phenyl]carbonyl}cyclopropane-1-carboxylic acid]",102,–
"O=C(c1ccc(Cl)c(Cl)c1)[C@H]1C[C@@H]1c1noc(=O)[nH]1 [3-[(1S,2S)-2-[(3,4-Dichlorophenyl)carbonyl]cyclopropyl]-4,5-dihydro-1,2,4-oxadiazol-5-one]",101,–
"N#C[C@H]1C[C@@H]1C(=O)c1ccc(Cl)c(Cl)c1 [(1S,2S)-2-[(3,4-Dichlorophenyl)carbonyl]cyclopropane-1-carbonitrile]",68,–
"O=C(O)[C@H]1C[C@@H]1C(=O)c1ccc(F)c(Cl)c1 [Sodium (1S,2S)-2-[(3-chloro-4-fluorophenyl)carbonyl]cyclopropane-1-carboxylate]",102,–
"O=C(c1ccc(Cl)c(Cl)c1)C1CC12CCOC2=O (stereo not drawn) [1-[(3,4-dichlorophenyl)carbonyl]-5-oxaspiro[2.4]heptan-4-one]",38,–
"O=C(c1ccc(Cl)c(Cl)c1)[C@H]1C[C@@H]1c1nnn[nH]1 [5-[(1S,2S)-2-[(3,4-Dichlorophenyl)carbonyl]cyclopropyl]-1H-1,2,3,4-tetrazole]",101,–
"O=C(O)[C@H]1C[C@@H]1C(=O)c1ccc(OC2CC2)c(Cl)c1 [(1S,2S)-2-[(3-Chloro-4-cyclopropoxyphenyl)carbonyl]cyclopropane-1-carboxylic acid]",101,–
"O=C(O)[C@H]1C[C@@H]1C(=O)c1cc(Cl)cc(Cl)c1 [(1S,2S)-2-[(3,5-Dichlorophenyl)carbonyl]cyclopropane-1-carboxylic acid]",103,–
"O=C1CN(C(=O)[C@H]2C[C@@H]2C(=O)c2ccc(Cl)c(Cl)c2)CCN1 [4-{[(1S,2S)-2-[(3,4-Dichlorophenyl)carbonyl]cyclopropyl]carbonyl}piperazin-2-one]",33,–
"N[C@@H](CCCCNC(=O)[C@H]1C[C@@H]1C(=O)c1ccc(Cl)c(Cl)c1)C(=O)O [(2S)-2-Amino-6-{[(1S,2S)-2-[(3,4-dichlorophenyl)carbonyl]cyclopropyl]formamide}hexanoic acid]",–,98
"O=C(O)[C@H]1N[C@@H]1C(=O)c1ccc(Cl)c(Cl)c1 [(2S,3S)-3-[(3,4-Dichlorophenyl)carbonyl]aziridine-2-carboxylic acid]",101,–
"O=C([O-])[C@H]1C[C@@H]1C(=O)c1ccc(C(F)(F)F)c(Cl)c1.[Na+] [Sodium (1S,2S)-2-{[3-chloro-4-(trifluoromethyl)phenyl]carbonyl}cyclopropane-1-carboxylate]",–,102
"O=C(O)[C@H]1C[C@@H]1C(=O)c1ccc(F)c(F)c1 [(1S,2S)-2-[(3,4-Difluorophenyl)carbonyl]cyclopropane-1-carboxylic acid]",88,–
"O=C(O)[C@H]1C[C@@H]1C(=O)c1cccc(Cl)c1 [(1S,2S)-2-[(3-Chlorophenyl)carbonyl]cyclopropane-1-carboxylic acid]",105,–
"O=C(Nc1ccccc1)[C@H]1C[C@@H]1C(=O)c1ccc(Cl)c(Cl)c1 [(1S,2S)-2-[(3,4-Dichlorophenyl)carbonyl]-N-phenylcyclopropane-1-carboxamide]",86,–
"COC(=O)[C@H]1C[C@@H]1C(=O)c1cc(Cl)cc(Cl)c1 [Methyl (1S,2S)-2-[(3,5-dichlorophenyl)carbonyl]cyclopropane-1-carboxylate]",104,–
"NC(=O)[C@H]1C[C@@H]1C(=O)c1ccc(OC2CC2)c(Cl)c1 [(1S,2S)-2-[(3-chloro-4-cyclopropoxyphenyl)carbonyl]cyclopropane-1-carboxamide]",42,–

# Further lines, results first:
inhibition at 30 µM [%],% Inhibition at 30 µM [%],SMILES
106,–,"O=C(O)[C@H]1C[C@@H]1C(=O)c1ccc(Cl)c(Cl)c1 [(1S,2S)-2-[(3,4-Dichlorophenyl)carbonyl]cyclopropane-1-carboxylic acid]"
101,–,"C[C@H]1[C@@H](C(=O)O)[C@@H]1C(=O)c1ccc(Cl)c(Cl)c1 (single isomer, unassigned)"
94,–,"O=C(NCCO)[C@H]1C[C@@H]1C(=O)c1ccc(Cl)c(Cl)c1 [(1S,2S)-2-[(3,4-dichlorophenyl)carbonyl]-N-(2-hydroxyethyl)cyclopropane-1-carboxamide]"
102,–,"CCOC(=O)OC(C)OC(=O)[C@H]1C[C@@H]1C(=O)c1ccc(Cl)c(Cl)c1 (stereo partly drawn) [1-[(Ethoxycarbonyl)oxy]ethyl (1S,2S)-2-[(3,4-dichlorophenyl)carbonyl]cyclopropane-1-carboxylate]"
102,–,"O=C(OCCO)[C@H]1C[C@@H]1C(=O)c1ccc(Cl)c(Cl)c1 [2-Hydroxyethyl (1S,2S)-2-[(3,4-dichlorophenyl)carbonyl]cyclopropane-1-carboxylate]"
98,–,"CC(C)Oc1ccc(C(=O)[C@H]2C[C@@H]2C(=O)O)cc1Cl [(1S,2S)-2-{[3-Chloro-4-(propan-2-yloxy)phenyl]carbonyl}cyclopropane-1-carboxylic acid]"
102,–,"CC(C)(C)C(=O)OCOC(=O)[C@H]1C[C@@H]1C(=O)c1ccc(Cl)c(Cl)c1 [{[(1S,2S)-2-[(3,4-dichlorophenyl)carbonyl]cyclopropyl]carbonyloxy}methyl 2,2-dimethylpropanoate]"
103,–,"CC(C)OC(=O)OC(C)OC(=O)[C@H]1C[C@@H]1C(=O)c1ccc(Cl)c(Cl)c1 (stereo partly drawn) [1-{[(Propan-2-yloxy)carbonyl]oxy}ethyl (1S,2S)-2-[(3,4-dichlorophenyl)carbonyl]cyclopropane-1-carboxylate]"
101,–,"CC(C)COC(=O)[C@H]1C[C@@H]1C(=O)c1ccc(Cl)c(Cl)c1 [2-Methylpropyl (1S,2S)-2-[(3,4-dichlorophenyl)carbonyl]cyclopropane-1-carboxylate]"
96.7,–,"C[C@@H]1[C@@H](C(=O)O)[C@@H]1C(=O)c1ccc(Cl)c(Cl)c1 (single isomer, unassigned)"
100,–,"Cc1ccc(C(=O)[C@H]2C[C@@H]2C(=O)O)cc1Cl [(1S,2S)-2-[(3-Chloro-4-methylphenyl)carbonyl]cyclopropane-1-carboxylic acid]"
101,–,"CC(C)(C)c1ccc(OC(=O)[C@H]2C[C@@H]2C(=O)c2ccc(Cl)c(Cl)c2)cc1 [4-tert-Butylphenyl (1S,2S)-2-[(3,4-dichlorophenyl)carbonyl]cyclopropane-1-carboxylate]"
52.5,–,"C[C@@H]1[C@H](C(=O)O)[C@H]1C(=O)c1ccc(Cl)c(Cl)c1 (single isomer, unassigned)"
103,–,"O=C(O)[C@H]1C[C@@H]1C(=O)c1ccc(Cl)c(F)c1 [(1S,2S)-2-[(4-Chloro-3-fluorophenyl)carbonyl]cyclopropane-1-carboxylic acid]"
101,–,"C[C@H]1[C@H](C(=O)O)[C@H]1C(=O)c1ccc(Cl)c(Cl)c1 (single isomer, unassigned)"
101,–,"CC(C)OC(=O)[C@H]1C[C@@H]1C(=O)c1ccc(Cl)c(Cl)c1 [Propan-2-yl (1S,2S)-2-[(3,4-dichlorophenyl)carbonyl]cyclopropane-1-carboxylate]"
101,–,"CCCCOC(=O)[C@H]1C[C@@H]1C(=O)c1ccc(Cl)c(Cl)c1 [Butyl (1S,2S)-2-[(3,4-Dichlorophenyl)carbonyl]cyclopropane-1-carboxylate]"
–,102,"CC(C)Oc1ccc(C(=O)[C@H]2C[C@@H]2C(=O)[O-])cc1Cl.[Na+] [Sodium (1S,2S)-2-{[3-chloro-4-(propan-2-yloxy)phenyl]carbonyl}cyclopropane-1-carboxylate]"
–,99,"C[N+](C)(C)CC(CC(=O)O)OC(=O)[C@H]1C[C@@H]1C(=O)c1ccc(Cl)c(Cl)c1 (stereo partly drawn) [(3-Carboxy-2-{[(1S,2S)-2-[(3,4-dichlorophenyl)carbonyl]cyclopropyl]carbonyloxy}propyl)trimethylazanium]"
102,–,"CCN(CC)CCOC(=O)[C@H]1C[C@@H]1C(=O)c1ccc(Cl)c(Cl)c1 [2-(Diethylamino)ethyl (1S,2S)-2-[(3,4-dichlorophenyl)carbonyl]cyclopropane-1-carboxylate]"

# Same assay, conditions: compound at 30 µM; KMO enzyme from mouse liver mitochondria; 100 μM L-Kynurenine; 40 min at RT; listed as 1S,2S)-2-(3-chloro-4-cyclopropoxybenzoyl)cyclopropane-1-carboxylic acid
row,% Inhibition at 30 µM [%],SMILES
1,100.5,"O=C(O)[C@H]1C[C@@H]1C(=O)c1ccc(OC2CC2)c(Cl)c1 [(1S,2S)-2-[(3-Chloro-4-cyclopropoxyphenyl)carbonyl]cyclopropane-1-carboxylic acid]"
